MIC data for eight compounds are collected here from patent publication US8993574B2, “Pyrrole antifungal agents” (F2G Ltd, priority 2008, dated 2015).

Holding throughout (format): cell-based
The subject of test [1] is Aspergillus niger. Kind of test: MIC, YAG medium. Particulars: Aspergillus niger, 24 h at 35° C, MIC banded into grades, read-out: MIC grade, A. niger. The method, then:
(§1) Between 1 and 5 mgs of compound were accurately weighed out into a sterile Eppendorf tube. The compound was dissolved in DMSO to give a solution containing 5 mg/mL. Tubes were stored at −20° C. until required.
(§2) On the day of testing thawed solutions were vortex mixed to ensure homogeneity. 30 μL of solution was removed and added to 570 μL of sterile water in a separate sterile Eppendorf. The thoroughly mixed solution was used to prepare a series of doubling dilutions in water, in a deep well plate. Thirteen replicate plates were prepared using a Minitrak by aspirating 20 μL from each well into eleven clear polystyrene 96 well plates.
(§3) Spores of Aspergillus spp. (Aspergillus fumigatus [two strains], Aspergillus terreus [two strains], Aspergillus niger and Aspergillus flavus) were harvested from cultures grown on Sabarauds agar for 5 days, and resuspended in PBS/Tween 80 to approx 1×10^7 cfu/mL. Each organism suspension was diluted in YAG medium (1% glucose, 1% ammonium chloride and 0.5% yeast extract) to 0.5−2×10^4 cfu/mL. 80 μL of an organism suspension was added to each well of the plate containing drug dilutions.
(§4) This produced MIC plates with a drug range 50-0.05 mg/L and organism inocula of 1−2×10^4 cfu/mL for Aspergillus spp. All plates were incubated for 24 h at 35° C. Growth was assessed by monitoring the optical density at 485 nm for each well. The MIC of a compound is the lowest drug concentration that inhibits growth of an organism by >70% compared with a drug free control. MICs are recorded as mg/L. In cases where the MIC of an organism is […] mg/L the MIC is repeated using a concentration range of 0.5-0.0005 mg/L.
(§5) The following organisms were tested: Aspergillus flavus, Aspergillus fumigatus AF293 and AF210, Aspergillus niger, Aspergillus terreus AT4 and AT49, Candida albicans, Candida glabrata, Candida krusei, Candida parapsilosis and Candida tropicalis.

In test [2] the test system is Aspergillus flavus. Kind of test: MIC, YAG medium. Particulars: Aspergillus flavus, 24 h, 24 h at 35° C, MIC banded into grades, read-out: MIC grade, A. flavus. As for the experimental part:
as §1, §2, §3, §4, §5

Test [3] concerns Aspergillus fumigatus AF293. Kind of test: MIC, YAG medium. Particulars: Aspergillus fumigatus, 24 h at 35° C, MIC banded into grades, read-out: MIC grade, A. fumigatus. As for the experimental part: as §1, §2, §3, §4, §5
For test [4], the system named is Aspergillus fumigatus AF210. Kind of test: MIC, YAG medium. Particulars: Aspergillus fumigatus, 24 h at 35° C, MIC banded into grades, read-out: MIC grade, A. fumigatus 210. As for the experimental part: as §1, §2, §3, §4, §5
Test [5] relates to Aspergillus terreus AT49. In words: MIC, YAG medium. The conditions noted are these: Aspergillus terreus, 24 h at 35° C, MIC banded into grades, read-out: MIC grade, A. terreus 49. As for the experimental part:
as §1, §2, §3, §4, §5

Test [6] concerns Aspergillus terreus AT4. Kind of test: MIC, YAG medium. The conditions noted are these: Aspergillus terreus, 24 h at 35° C, MIC banded into grades, read-out: MIC grade, A. terreus. The method, then:
as §1, §2, §3, §4, §5

The subject of test [7] is Aspergillus niger. In words: MIC, RPMI medium. Particulars: Aspergillus niger, MIC banded into grades, read-out: MIC grade, A. niger. The method, then: as §1, §2
(§6) Assays were also performed in RPMI medium for both Aspergillus spp. (strains described above) and Candida spp. (Candida albicans, Candida glabrata, Candida krusei, Candida parapsilosis and Candida tropicalis). To perform MIC tests in this medium, dilutions of compounds are prepared in microtitre plates as described above. Fungal strains to be tested are grown and harvested in an identical manner to that described above, and each organism suspension was diluted in RPMI medium, containing 2% glucose and 0.135 M MOPS buffer (pH 7.0) to 0.5-2×10^4 cfu/mL, rather than in YAG medium. 80 μL of an organism suspension was added to each well of the plate containing drug dilutions.
(§7) This produced MIC plates with a drug range 50-0.05 mg/L and organism inocula of 1−2×10^4 cfu/mL. All plates were incubated for 24-48 h at 35° C. Growth was assessed by monitoring the optical density at 485 nm for each well. The MIC of a compound is the lowest drug concentration that inhibits growth of an organism by >80% compared with a drug free control.
as §5

Test [8] deals with Aspergillus flavus. Kind of test: MIC, RPMI medium. The conditions noted are these: Aspergillus flavus, MIC banded into grades, read-out: MIC grade, A. flavus. As for the experimental part: as §1, §2, §6, §7, §5
For test [9], the system named is Aspergillus fumigatus AF293. In words: MIC, RPMI medium. Particulars: Aspergillus fumigatus, AF293, MIC banded into grades, read-out: MIC grade, A. fumigatus. As for the experimental part:
as §1, §2, §6, §7, §5

Test [10] relates to Aspergillus fumigatus AF210. Kind of test: MIC, RPMI medium. The conditions noted are these: Aspergillus fumigatus, AF210, MIC banded into grades, read-out: MIC grade, A. fumigatus 210. As for the experimental part: as §1, §2, §6, §7, §5
Test [11] relates to Aspergillus terreus AT49. Kind of test: MIC, RPMI medium. The conditions noted are these: Aspergillus terreus, AT49, MIC banded into grades, read-out: MIC grade, A. terreus 49. As for the experimental part: as §1, §2, §6, §7, §5
Test [12] relates to Aspergillus terreus AT4. In words: MIC, RPMI medium. Particulars: Aspergillus terreus, AT4, MIC banded into grades, read-out: MIC grade, A. terreus. The method, then:
as §1, §2, §6, §7, §5

In brackets after ≈: the same amount, converted by molar mass. Bounds are passed on as bounds.

For `Cc1ccnc(N2CCN(c3ccc(NC(=O)C(=O)c4c(-c5ccccc5)cc(C)n4C)cc3)CC2)c1` [Example 40, 2-(1,5-Dimethyl-3-phenyl-1H-pyrrol-2-yl)-N-{4-[4-(4-methyl-pyridin-2-yl)-piperazin-1-yl]-phenyl}-2-oxo-acetamide], the MIC (in the test with Aspergillus niger [1]; with Aspergillus flavus [2]; in test [3]; in test [4]; in the test with Aspergillus terreus AT49 [5]; in the test with Aspergillus terreus AT4 [6]) was under 1 µg/mL throughout. The MIC (with Aspergillus niger [7]; in the test with Aspergillus flavus [8]; in test [9]; in [10]; with Aspergillus terreus AT49 [11]; in the test on Aspergillus terreus AT4 [12]) was under 1 µg/mL throughout.
Take `COCCc1cc(-c2ccccc2)c(C(=O)C(=O)Nc2ccc(N3CCN(c4cc(C)cc(C)n4)CC3)cc2)n1C` [Example 129, N-{4-[4-(4,6-Dimethyl-pyridin-2-yl)-piperazin-1-yl]-phenyl}-2-[5-(2-methoxy-ethyl)-1-methyl-3-phenyl-1H-pyrrol-2-yl]-2-oxo-acetamide]: the MIC (in the test on Aspergillus niger [1]; in the test on Aspergillus flavus [2]; in test [3]; in [4]; with Aspergillus terreus AT49 [5]; with Aspergillus terreus AT4 [6]) was under 1 µg/mL each time. Further, the MIC was 1 to 10 µg/mL (≈ 1.81 to 18.1 µM) in the test on Aspergillus niger [7]; under 1 µg/mL in the test on Aspergillus flavus [8]; under 1 µg/mL in test [9]; 1 to 10 µg/mL (≈ 1.81 to 18.1 µM) in [10]; 1 to 10 µg/mL (≈ 1.81 to 18.1 µM) in the test with Aspergillus terreus AT49 [11]; 1 to 10 µg/mL (≈ 1.81 to 18.1 µM) in the test with Aspergillus terreus AT4 [12].
For the compound `Cc1cc(-c2ccccc2)c(C(=O)C(=O)Nc2ccc(N3CCCCC3)cc2)n1C` [Example 143, 2-(1,5-Dimethyl-3-phenyl-1H-pyrrol-2-yl)-2-oxo-N-(4-piperidin-1-yl-phenyl)-acetamide], the MIC (in the test on Aspergillus niger [1]; with Aspergillus flavus [2]; in test [3]; in test [4]; in the test with Aspergillus terreus AT49 [5]; in the test on Aspergillus terreus AT4 [6]) was under 1 µg/mL throughout. Moreover, the MIC (in the test on Aspergillus niger [7]; with Aspergillus flavus [8]; in [9]; in [10]; with Aspergillus terreus AT49 [11]; in the test on Aspergillus terreus AT4 [12]) was under 1 µg/mL each time.
Turning to `Cc1cc(-c2ccccc2)c(C(=O)C(=O)Nc2cccc3c(F)cccc23)n1C` [Example 127, 2-(1,5-Dimethyl-3-phenyl-1H-pyrrol-2-yl)-N-(5-fluoro-naphthalen-1-yl)-2-oxo-acetamide], the MIC with Aspergillus niger [1] is under 1 µg/mL; in the test on Aspergillus flavus [2], under 1 µg/mL; in test [3], over 10 µg/mL; in test [4], 1 to 10 µg/mL (≈ 2.59 to 25.9 µM); with Aspergillus terreus AT49 [5], under 1 µg/mL; in the test on Aspergillus terreus AT4 [6], under 1 µg/mL. Besides, the MIC is under 1 µg/mL in the test on Aspergillus niger [7]; under 1 µg/mL in the test on Aspergillus flavus [8]; over 10 µg/mL in test [9]; over 10 µg/mL in [10]; under 1 µg/mL with Aspergillus terreus AT49 [11]; under 1 µg/mL in the test with Aspergillus terreus AT4 [12].
Take `Cc1cc(C)nc(N2CCN(c3ccc(NC(=O)C(=O)c4cc(-c5ccccc5)cn4C)cc3)CC2)c1` [Example 46, N-{4-[4-(4,6-Dimethyl-pyridin-2-yl)-piperazin-1-yl]-phenyl}-2-(1-methyl-4-phenyl-1H-pyrrol-2-yl)-2-oxo-acetamide]: the MIC is over 10 µg/mL in the test on Aspergillus niger [1]; under 1 µg/mL in the test with Aspergillus flavus [2]; 1 to 10 µg/mL (≈ 2.03 to 20.3 µM) in [3]; under 1 µg/mL in test [4]; under 1 µg/mL in the test on Aspergillus terreus AT49 [5]; over 10 µg/mL in the test with Aspergillus terreus AT4 [6]. The MIC in the test on Aspergillus niger [7] was over 10 µg/mL; in the test on Aspergillus flavus [8], over 10 µg/mL; in [9] it was over 10 µg/mL; in [10], over 10 µg/mL; in the test with Aspergillus terreus AT49 [11] it was 1 to 10 µg/mL (≈ 2.03 to 20.3 µM); with Aspergillus terreus AT4 [12], 1 to 10 µg/mL (≈ 2.03 to 20.3 µM).
Consider `CCOCCn1c(C)cc(-c2ccccc2)c1C(=O)C(=O)Nc1ccc(N2CCN(c3cc(C)cc(C)n3)CC2)cc1` [Example 27, N-{4-[4-(4,6-Dimethyl-pyridin-2-yl)-piperazin-1-yl]-phenyl}-2-[1-(2-ethoxy-ethyl)-5-methyl-3-phenyl-1H-pyrrol-2-yl]-2-oxo-acetamide], for which the MIC with Aspergillus niger [1] was 1 to 10 µg/mL (≈ 1.77 to 17.7 µM); in the test on Aspergillus flavus [2] it was over 10 µg/mL; in test [3], under 1 µg/mL; in test [4] it was under 1 µg/mL; in the test on Aspergillus terreus AT49 [5] it was 1 to 10 µg/mL (≈ 1.77 to 17.7 µM); in the test with Aspergillus terreus AT4 [6], 1 to 10 µg/mL (≈ 1.77 to 17.7 µM). The MIC was 1 to 10 µg/mL (≈ 1.77 to 17.7 µM) with Aspergillus niger [7]; over 10 µg/mL with Aspergillus flavus [8]; 1 to 10 µg/mL (≈ 1.77 to 17.7 µM) in test [9]; 1 to 10 µg/mL (≈ 1.77 to 17.7 µM) in [10]; over 10 µg/mL in the test on Aspergillus terreus AT49 [11]; over 10 µg/mL in the test on Aspergillus terreus AT4 [12].
For the compound `Cc1cc(-c2ccccc2)c(C(=O)C(=O)Nc2ccc(N3CCOCC3)cc2)n1C` [Example 154, 2-(1,5-Dimethyl-3-phenyl-1H-pyrrol-2-yl)-N-(4-morpholin-4-yl-phenyl)-2-oxo-acetamide], the minimal inhibitory concentration (MIC) (with Aspergillus niger [1]; with Aspergillus flavus [2]; in [3]; in [4]; in the test on Aspergillus terreus AT49 [5]; in the test with Aspergillus terreus AT4 [6]) was under 1 µg/mL throughout. In addition, the MIC (in the test with Aspergillus niger [7]; with Aspergillus flavus [8]; in test [9]; in [10]; in the test with Aspergillus terreus AT49 [11]; with Aspergillus terreus AT4 [12]) was under 1 µg/mL each time.
Consider `Cc1cc(C)nc(N2CCN(c3ccc(NC(=O)C(=O)c4c(-c5ccccc5)ccn4CCO)cc3)CC2)c1` [Example 66, N-{4-[4-(4,6-Dimethyl-pyridin-2-yl)-piperazin-1-yl]-phenyl}-2-[1-(2-hydroxy-ethyl)-3-phenyl-1H-pyrrol-2-yl]-2-oxo-acetamide], for which the MIC is over 10 µg/mL in the test with Aspergillus niger [1]; 1 to 10 µg/mL (≈ 1.91 to 19.1 µM) in the test on Aspergillus flavus [2]; under 1 µg/mL in test [3]; 1 to 10 µg/mL (≈ 1.91 to 19.1 µM) in test [4]; under 1 µg/mL with Aspergillus terreus AT49 [5]; 1 to 10 µg/mL (≈ 1.91 to 19.1 µM) in the test with Aspergillus terreus AT4 [6]. In addition, the minimal inhibitory concentration (MIC) is over 10 µg/mL with Aspergillus niger [7]; over 10 µg/mL with Aspergillus flavus [8]; 1 to 10 µg/mL (≈ 1.91 to 19.1 µM) in test [9]; 1 to 10 µg/mL (≈ 1.91 to 19.1 µM) in test [10]; 1 to 10 µg/mL (≈ 1.91 to 19.1 µM) in the test with Aspergillus terreus AT49 [11]; 1 to 10 µg/mL (≈ 1.91 to 19.1 µM) in the test on Aspergillus terreus AT4 [12].
